According to patent US20240270762A1, “PENICILLIN-BINDING PROTEIN INHIBITORS” (priority 2021, published 2024):
In brackets after ≈: the same amount, converted by molar mass. Like-named read-outs stand apart in the source and are kept apart here.

Legend:
[1] = biological target: T1, PBP3 from Pseudomonas aeruginosa (PAO1) (Pseudomonas aeruginosa, UniProt G3XD46); experiment: Bocillin-FL fluorescence polarization competition binding, P. aeruginosa PBP3; conditions: Binding affinity to P. aeruginosa PBP3; fluorescence polarization competition binding assay using Bocillin-FL; read-out: P. aeruginosa PBP3 Potency
T1 construct: made in house
T1 sequence (G3XD46 whole entry): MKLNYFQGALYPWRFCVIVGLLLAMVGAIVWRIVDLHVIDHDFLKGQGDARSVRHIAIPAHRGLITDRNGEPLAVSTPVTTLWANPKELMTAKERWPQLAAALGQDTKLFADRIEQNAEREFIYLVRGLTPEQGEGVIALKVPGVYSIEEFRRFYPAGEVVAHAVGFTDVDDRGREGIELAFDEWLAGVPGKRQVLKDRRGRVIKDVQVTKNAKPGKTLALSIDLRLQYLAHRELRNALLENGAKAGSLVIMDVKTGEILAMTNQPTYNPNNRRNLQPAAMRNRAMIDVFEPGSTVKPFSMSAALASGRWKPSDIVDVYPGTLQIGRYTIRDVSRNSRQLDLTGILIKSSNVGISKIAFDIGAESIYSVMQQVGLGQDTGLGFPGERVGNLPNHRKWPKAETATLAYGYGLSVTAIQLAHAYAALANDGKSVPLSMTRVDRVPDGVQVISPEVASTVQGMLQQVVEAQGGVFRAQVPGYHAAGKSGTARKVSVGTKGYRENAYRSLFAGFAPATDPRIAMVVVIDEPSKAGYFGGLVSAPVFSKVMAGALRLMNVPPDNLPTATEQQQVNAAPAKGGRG
Outline: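 Purified PBPs pre-incubated with inhibitor (E. coli PBP3 1.5 μM, 30 min; P. aeruginosa PBP3 0.75 μM, A. baumannii PBP1a 1 μM and PBP3 0.2 μM, 15 min), then Bocillin-FL 0.1 μM (0.05 μM for PBP1a) added; FP read up to 60 min. EC50 = concentration halving bound Bocillin-FL.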

[2] = tested on: P. aeruginosa ATCC 27853; experiment: microbe, parasite or virus in culture; type: cell-based; conditions: Pseudomonas aeruginosa, ATCC27853, read-out: Minimum inhibitory concentration, P. aeruginosa ATCC 27853
[3] = tested on: P. aeruginosa CDC-0095; experiment: microbe, parasite or virus in culture; type: cell-based; conditions: Pseudomonas aeruginosa, CDC0095, read-out: Minimum inhibitory concentration, P. aeruginosa CDC-0095
[4] = tested on: A. baumannii CDC-0036; experiment: microbe, parasite or virus in culture; type: cell-based; conditions: Acinetobacter baumannii, CDC0036, read-out: MIC, A. baumannii CDC-0036
[5] = tested on: A. baumannii CDC-0045; experiment: microbe, parasite or virus in culture; type: cell-based; conditions: Acinetobacter baumannii, CDC0045, read-out: MIC, A. baumannii CDC-0045
[6] = tested on: B. thailandensis ATCC 700388; experiment: microbe, parasite or virus in culture; type: cell-based; conditions: Burkholderia thailandensis, ATCC700388, read-out: Minimum inhibitory concentration (MIC), B. thailandensis ATCC 700388
[7] = tested on: B. humptydooensis ATCC BAA-2767; experiment: microbe, parasite or virus in culture; type: cell-based; conditions: Burkholderia humptydooensis, ATCCBAA2767, read-out: Minimum inhibitory concentration (MIC), B. humptydooensis ATCC BAA-2767
[8] = tested on: P. aeruginosa CDC-0110; experiment: microbe, parasite or virus in culture; type: cell-based; conditions: Pseudomonas aeruginosa, CDC0110, read-out: Minimum inhibitory concentration, P. aeruginosa CDC-0110
[9] = tested on: N. gonorrhoeae FA1090; experiment: Liquid broth MIC in Fastidious broth; conditions: Neisseria gonorrhoeae
[10] = tested on: N. gonorrhoeae WHO G; experiment: Liquid broth MIC in Fastidious broth; conditions: Neisseria gonorrhoeae
[11] = tested on: N. gonorrhoeae WHO L; experiment: Liquid broth MIC in Fastidious broth; conditions: Neisseria gonorrhoeae
Experimental: Liquid broth-based assays were used for antibacterial testing of PBP inhibitors in Neisseria gonorrhoeae. Briefly, cryo-preserved bacterial cultures of clinical strains were streaked for isolation on Chocolate Agar (72 g/L (2×) GC Agar Base (BD #228950) and 2% (2×) Hemoglobin was autoclaved at 121° C. for 20 minutes to sterilize. Once cooled to ˜50° C. the 2×GC Agar Base and 2× Hemoglobin solutions are combined and 1% IsoVitaleX Enrichment (BD #211876) was added to the solution). Strains were incubated at 36° C. and 5% CO2 to allow growth of colonies, 24 hours before inoculum preparation. 2-fold serial dilutions of test compounds were conducted in a 96 well plate with a final volume of 75 μL per well at 2-fold the final desired concentration in Fastidious broth (Remel #R07664). For preparation of assay inoculum, a direct suspension was prepared by aseptically swabbing 10-15 colonies from agar plates into culture tubes containing 2 mL of fresh sterile saline. After the dilution plates were set up, direct suspensions were then diluted in a cuvette containing sterile saline and the optical density was measured at 600 nm. Inocula were diluted such that 75 μL of this culture in Fastidious broth results in a starting bacterial concentration of 5×10^5 CFU/mL when added to the dilution plates. The plates were incubated for ˜24 hours at 36° C. and 5% CO2.

[12] = tested on: N. gonorrhoeae WHO Q; experiment: Liquid broth MIC in Fastidious broth; conditions: Neisseria gonorrhoeae
[13] = FA1090, read-out: Minimum Inhibitory Concentration, FA 1090
[14] = read-out: Minimum Inhibitory Concentration, WHO G
[15] = read-out: Minimum Inhibitory Concentration, WHO L
[16] = read-out: Minimum Inhibitory Concentration, WHO Q
[17] = FA1090, read-out: Minimum Inhibitory Concentration (MIC), N. gonorrhoeae FA 1090
[18] = read-out: Minimum Inhibitory Concentration (MIC), N. gonorrhoeae WHO G
[19] = read-out: Minimum Inhibitory Concentration (MIC), N. gonorrhoeae WHO L
[20] = read-out: Minimum Inhibitory Concentration (MIC), N. gonorrhoeae WHO Q

SMILES | IC50 [1] [µM] | MIC [2] [µg/mL] | MIC [3] [µg/mL] | MIC [4] [µg/mL] | MIC [5] [µg/mL] | MIC [6] [µg/mL] | MIC [7] [µg/mL] | MIC [8] [µg/mL] | MIC [9, 13] [µg/mL] | MIC [10, 14] [µg/mL] | MIC [11, 15] [µg/mL] | MIC [12, 16] [µg/mL] | MIC [9, 17] [µg/mL] | MIC [10, 18] [µg/mL] | MIC [11, 19] [µg/mL] | MIC [12, 20] [µg/mL]
O=C(NCCCN1CCN(C(=O)N[C@@H](C(=O)N[C@H]2Cc3ccc(F)c(C(=O)O)c3OB2O)c2cc(F)c(O)c(O)c2Cl)C1=O)Nc1cccc(O)c1 [Example 258, (R)-3-((R)-2-(2-chloro-5-fluoro-3,4-dihydroxyphenyl)-2-(3-(3-(3-(3-hydroxyphenyl)ureido)propyl)-2-oxoimidazolidine-1-carboxamido)acetamido)-7-fluoro-2-hydroxy-3,4-dihydro-2H-benzo[e][1,2]oxaborinine-8-carboxylic acid] | < 10 | 2 to 4 (≈ 2.68 to 5.36 µM) | < 1 | < 1 | < 1 | < 1 | < 1 | < 1 | 1 to 2 (≈ 1.34 to 2.68 µM) | 4 to 8 (≈ 5.36 to 10.7 µM) | > 64 | 16 to 32 (≈ 21.4 to 42.8 µM) | – | – | – | –
O=C(NCCCN1CCN(C(=O)NC(C(=O)N[C@H]2Cc3ccc(F)c(C(=O)O)c3OB2O)c2cc(F)c(O)c(O)c2Cl)C(=O)C1=O)Nc1ccncc1 (stereo partly drawn) [Example 228, (3R)-3-(2-(2-chloro-5-fluoro-3,4-dihydroxyphenyl)-2-(2,3-dioxo-4-(3-(3-(pyridin-4-yl)ureido)propyl)piperazine-1-carboxamido)acetamido)-7-fluoro-2-hydroxy-3,4-dihydro-2H-benzo[e][1,2]oxaborinine-8-carboxylic acid] | < 10 | < 1 | 2 to 4 (≈ 2.63 to 5.26 µM) | 2 to 4 (≈ 2.63 to 5.26 µM) | < 1 | < 1 | < 1 | < 1 | – | – | – | – | 1 to 2 (≈ 1.32 to 2.63 µM) | 16 to 32 (≈ 21.1 to 42.1 µM) | > 64 | > 64
O=C(NCCN1CCN(C(=O)NC(C(=O)N[C@H]2Cc3ccc(F)c(C(=O)O)c3OB2O)c2cc(F)c(O)c(O)c2Cl)C1=O)c1ccc(O)cc1 (stereo partly drawn) [Example 243, (3R)-3-(2-(2-chloro-5-fluoro-3,4-dihydroxyphenyl)-2-(3-(2-(4-hydroxybenzamido)ethyl)-2-oxoimidazolidine-1-carboxamido)acetamido)-7-fluoro-2-hydroxy-3,4-dihydro-2H-benzo[e][1,2]oxaborinine-8-carboxylic acid] | < 10 | < 1 | 8 to 16 (≈ 11.1 to 22.3 µM) | < 1 | < 1 | 2 to 4 (≈ 2.79 to 5.57 µM) | 2 to 4 (≈ 2.79 to 5.57 µM) | < 1 | – | – | – | – | 4 to 8 (≈ 5.57 to 11.1 µM) | 16 to 32 (≈ 22.3 to 44.6 µM) | > 64 | > 64
O=C(CN1CCN(C(=O)N[C@@H](C(=O)N[C@H]2Cc3ccc(F)c(C(=O)O)c3OB2O)c2cc(F)c(O)c(O)c2Cl)C(=O)C1=O)NCc1nccs1 [Example 241, (R)-3-((R)-2-(2-chloro-5-fluoro-3,4-dihydroxyphenyl)-2-(2,3-dioxo-4-(2-oxo-2-((thiazol-2-ylmethyl)amino)ethyl)piperazine-1-carboxamido)acetamido)-7-fluoro-2-hydroxy-3,4-dihydro-2H-benzo[e][1,2]oxaborinine-8-carboxylic acid] | < 10 | < 1 | 2 to 4 (≈ 2.71 to 5.43 µM) | 2 to 4 (≈ 2.71 to 5.43 µM) | 2 to 4 (≈ 2.71 to 5.43 µM) | 2 to 4 (≈ 2.71 to 5.43 µM) | 2 to 4 (≈ 2.71 to 5.43 µM) | < 1 | – | – | – | – | 1 to 2 (≈ 1.36 to 2.71 µM) | 4 to 8 (≈ 5.43 to 10.9 µM) | > 64 | 16 to 32 (≈ 21.7 to 43.4 µM)
O=C(NCCCS(=O)(=O)N1CCN(C(=O)NC(C(=O)N[C@H]2Cc3ccc(F)c(C(=O)O)c3OB2O)c2cc(F)c(O)c(O)c2Cl)C1=O)c1nccs1 (stereo partly drawn) [Example 274, (3R)-3-(2-(2-chloro-5-fluoro-3,4-dihydroxyphenyl)-2-(2-oxo-3-((3-(thiazole-2-carboxamido)propyl)sulfonyl)imidazolidine-1-carboxamido)acetamido)-7-fluoro-2-hydroxy-3,4-dihydro-2H-benzo[e][1,2]oxaborinine-8-carboxylic acid] | < 10 | 2 to 4 (≈ 2.54 to 5.08 µM) | > 128 | 2 to 4 (≈ 2.54 to 5.08 µM) | < 1 | > 128 | 2 to 4 (≈ 2.54 to 5.08 µM) | 2 to 4 (≈ 2.54 to 5.08 µM) | 4 to 8 (≈ 5.08 to 10.2 µM) | 16 to 32 (≈ 20.3 to 40.7 µM) | > 64 | 16 to 32 (≈ 20.3 to 40.7 µM) | – | – | – | –
CN(CCN1CCN(C(=O)NC(C(=O)N[C@H]2Cc3ccc(F)c(C(=O)O)c3OB2O)c2cc(F)c(O)c(O)c2Cl)C(=O)C1=O)S(=O)(=O)c1cccc(C(N)=O)c1 (stereo partly drawn) [Example 224, (3R)-3-(2-(4-(2-((3-carbamoyl-N-methylphenyl)sulfonamido)ethyl)-2,3-dioxopiperazine-1-carboxamido)-2-(2-chloro-5-fluoro-3,4-dihydroxyphenyl)acetamido)-7-fluoro-2-hydroxy-3,4-dihydro-2H-benzo[e][1,2]oxaborinine-8-carboxylic acid] | < 10 | 2 to 4 (≈ 2.43 to 4.86 µM) | 2 to 4 (≈ 2.43 to 4.86 µM) | 8 to 16 (≈ 9.72 to 19.4 µM) | < 1 | 2 to 4 (≈ 2.43 to 4.86 µM) | < 1 | < 1 | – | – | – | – | 4 to 8 (≈ 4.86 to 9.72 µM) | 16 to 32 (≈ 19.4 to 38.9 µM) | > 64 | > 64
O=C(CN1CCN(C(=O)NC(C(=O)N[C@H]2Cc3ccc(F)c(C(=O)O)c3OB2O)c2cc(F)c(O)c(O)c2Cl)C(=O)C1=O)NCc1cccnc1 (stereo partly drawn) [Example 240, (3R)-3-(2-(2-chloro-5-fluoro-3,4-dihydroxyphenyl)-2-(2,3-dioxo-4-(2-oxo-2-((pyridin-3-ylmethyl)amino)ethyl)piperazine-1-carboxamido)acetamido)-7-fluoro-2-hydroxy-3,4-dihydro-2H-benzo[e][1,2]oxaborinine-8-carboxylic acid] | < 10 | < 1 | 2 to 4 (≈ 2.74 to 5.47 µM) | 2 to 4 (≈ 2.74 to 5.47 µM) | 2 to 4 (≈ 2.74 to 5.47 µM) | 2 to 4 (≈ 2.74 to 5.47 µM) | 2 to 4 (≈ 2.74 to 5.47 µM) | < 1 | – | – | – | – | 1 to 2 (≈ 1.37 to 2.74 µM) | 4 to 8 (≈ 5.47 to 10.9 µM) | > 64 | 16 to 32 (≈ 21.9 to 43.8 µM)
O=C(NCCN1CCN(C(=O)NC(C(=O)N[C@H]2Cc3ccc(F)c(C(=O)O)c3OB2O)c2cc(F)c(O)c(O)c2Cl)C(=O)C1=O)c1nccs1 (stereo partly drawn) [Example 218, (3R)-3-(2-(2-chloro-5-fluoro-3,4-dihydroxyphenyl)-2-(2,3-dioxo-4-(2-(thiazole-2-carboxamido)ethyl)piperazine-1-carboxamido)acetamido)-7-fluoro-2-hydroxy-3,4-dihydro-2H-benzo[e][1,2]oxaborinine-8-carboxylic acid] | < 10 | 2 to 4 (≈ 2.71 to 5.43 µM) | 8 to 16 (≈ 10.9 to 21.7 µM) | 8 to 16 (≈ 10.9 to 21.7 µM) | 8 to 16 (≈ 10.9 to 21.7 µM) | 2 to 4 (≈ 2.71 to 5.43 µM) | 2 to 4 (≈ 2.71 to 5.43 µM) | 2 to 4 (≈ 2.71 to 5.43 µM) | – | – | – | – | 1 to 2 (≈ 1.36 to 2.71 µM) | 16 to 32 (≈ 21.7 to 43.4 µM) | > 64 | > 64
